Our source for the AUC, Cmax and IC50 values is US20220380385A1, “PYRIMIDINE FIVE-MEMBERED NITROGEN HETEROCYCLIC DERIVATIVE, PREPARATION METHOD THEREOF AND PHARMACEUTICAL USE THEREOF” (TUOJIE BIOTECH(SHANGHAI) CO., LTD., priority 2019, published 2022).

A short description of data set [1]: In vivo pharmacokinetics in cynomolgus monkeys (gavage). To be noted: male, plasma, po, 5 mg/kg, original drug, cynomolgus monkey, 5 mpk. The method, then:
Cynomolgus monkeys were used as the test animals. The plasma drug concentration at different times after the cynomolgus monkeys were given the compounds of the invention by gavage was determined by using the LC/MS/MS method. The in vivo pharmacokinetic behavior of the compounds of the present invention in cynomolgus monkeys was studied, and pharmacokinetic characteristics thereof were evaluated.
Test animals: 3 healthy, 2-5 years old male cynomolgus monkeys in each group;
Administration by gavage: a certain amount of drug was weighed, and 0.5% by mass of hypromellose, 0.1% by volume of Tween 80 and 99.4% by volume of water were added thereto to formulate a white suspension at 1 mg/mL.
The cynomolgus monkeys were fasted overnight, and then the drug was administered by gavage at a dose of 5 mg/kg.
Cynomolgus monkeys were administered the compounds of the present invention by gavage. At 0.25, 0.5, 1, 2, 4, 8 and 24 hours after administration, 0.2 mL of blood was collected from the peripheral vein and placed in a test tube containing EDTA-K2. The tube was centrifuged at 2 to 8° C., 2000 rpm for 10 minutes to separate the plasma, which was stored at −75° C.
Determination of the content of the test compounds in cynomolgus monkey plasma after administration of different concentrations of drugs by gavage: 55 μL of cynomolgus monkey plasma at each time after administration was taken, and 200 μL of a solution of the internal standard verapamil or dexamethasone in acetonitrile. The mixture was mixed by vortexing for 30 seconds, centrifuged at 4° C., 3900 rpm for 15 minutes. The supernatant of the plasma samples were collected and diluted three times with water, and 15 μL was taken for LC/MS/MS analysis.

A further data set deals with T1, CYP2C9 (Homo sapiens, UniProt P11712).
T1 construct: Mixed human liver microsomes from 150 donors; tissue Corning 452117; host or cells: pooled human liver microsomes (150 donors)
T1 sequence (P11712 whole entry): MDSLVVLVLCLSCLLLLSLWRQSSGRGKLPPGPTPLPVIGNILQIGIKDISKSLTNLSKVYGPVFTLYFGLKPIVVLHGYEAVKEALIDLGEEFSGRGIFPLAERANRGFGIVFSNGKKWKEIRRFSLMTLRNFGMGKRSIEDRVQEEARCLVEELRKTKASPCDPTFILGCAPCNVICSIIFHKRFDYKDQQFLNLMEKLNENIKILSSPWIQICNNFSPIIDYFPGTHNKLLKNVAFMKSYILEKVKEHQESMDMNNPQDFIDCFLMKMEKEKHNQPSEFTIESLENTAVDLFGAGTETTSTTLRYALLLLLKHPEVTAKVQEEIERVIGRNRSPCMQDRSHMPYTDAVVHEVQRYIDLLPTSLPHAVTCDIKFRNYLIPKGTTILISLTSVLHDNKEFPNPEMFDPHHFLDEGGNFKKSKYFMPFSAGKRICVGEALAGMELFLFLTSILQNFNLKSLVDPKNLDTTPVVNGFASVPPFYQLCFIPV
Description: CYP inhibition in mixed human liver microsomes, CYP2C9 (diclofenac sodium). It is filed as in vitro ADME. The method, then:
(§1) Mixed human liver microsomes from 150 donors (purchased from Corning, catalog number 452117) were used to evaluate the representative substrate metabolic responses of the five main human CYP subtypes (CYP1A2, CYP2C9, CYP2C19, CYP2D6 and CYP3A4/5). The influence of different concentrations of test compounds on the metabolic responses of phenacetin (CYP1A2), diclofenac sodium (CYP2C9), S-mephenytoin (CYP2C19), bufurolol hydrochloride (2D6) and midazolam (CYP3A4/5) was determined by liquid chromatography tandem mass spectrometry (LC/MS/MS).
(§2) 200 μL of the reaction system (100 mmol/L phosphate buffer, pH 7.4, containing 0.3% DMSO, 0.6% acetonitrile and 0.1% methanol by volume respectively) with 30 µM phenacetin, 10 μM diclofenac sodium, 35 μM S-mephenytoin, 5 μM bufurolol hydrochloride, 3 μM midazolam, 1 mM NADPH, test compound (at a concentration of 0.1, 0.3, 1, 3, 10 and 30 μmol/L respectively) or positive compound or blank control and mixed human liver microsomes (0.2 mg/mL) was incubated at 37° C. for 5 minutes. […]
(§3) The peak area was calculated based on the chromatograms. The residual activity ratio (%) was calculated using the following equation: […]
(§4) The CYP median inhibitory concentration (IC50) was calculated by Excel XLfit 5.3.1.3.

The target in the next data set is T2, CYP2C19 (Homo sapiens, UniProt P33261).
T2 construct: Mixed human liver microsomes from 150 donors; tissue Corning 452117; host or cells: pooled human liver microsomes (150 donors)
T2 sequence (P33261 whole entry): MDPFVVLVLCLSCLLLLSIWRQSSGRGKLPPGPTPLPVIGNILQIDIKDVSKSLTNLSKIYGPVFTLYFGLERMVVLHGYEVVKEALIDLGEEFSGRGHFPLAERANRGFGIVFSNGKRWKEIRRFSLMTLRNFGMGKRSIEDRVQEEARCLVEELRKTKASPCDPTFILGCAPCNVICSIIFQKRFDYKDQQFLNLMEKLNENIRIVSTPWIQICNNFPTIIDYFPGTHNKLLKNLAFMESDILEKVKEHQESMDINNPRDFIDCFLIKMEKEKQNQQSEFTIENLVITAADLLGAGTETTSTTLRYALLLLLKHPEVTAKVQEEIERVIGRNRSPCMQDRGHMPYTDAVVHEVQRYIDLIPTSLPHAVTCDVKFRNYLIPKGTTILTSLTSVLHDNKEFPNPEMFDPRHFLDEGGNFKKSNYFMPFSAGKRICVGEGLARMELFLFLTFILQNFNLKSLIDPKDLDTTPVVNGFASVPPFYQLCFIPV
Description: CYP inhibition in mixed human liver microsomes, CYP2C19 (S-mephenytoin). The data set is classed as in vitro ADME. The method, then: as §1, §2, §3, §4

A further data set deals with T3, CYP2D6 (Homo sapiens, UniProt P10635).
T3 construct: Mixed human liver microsomes from 150 donors; tissue Corning 452117; host or cells: pooled human liver microsomes (150 donors)
T3 sequence (P10635 whole entry): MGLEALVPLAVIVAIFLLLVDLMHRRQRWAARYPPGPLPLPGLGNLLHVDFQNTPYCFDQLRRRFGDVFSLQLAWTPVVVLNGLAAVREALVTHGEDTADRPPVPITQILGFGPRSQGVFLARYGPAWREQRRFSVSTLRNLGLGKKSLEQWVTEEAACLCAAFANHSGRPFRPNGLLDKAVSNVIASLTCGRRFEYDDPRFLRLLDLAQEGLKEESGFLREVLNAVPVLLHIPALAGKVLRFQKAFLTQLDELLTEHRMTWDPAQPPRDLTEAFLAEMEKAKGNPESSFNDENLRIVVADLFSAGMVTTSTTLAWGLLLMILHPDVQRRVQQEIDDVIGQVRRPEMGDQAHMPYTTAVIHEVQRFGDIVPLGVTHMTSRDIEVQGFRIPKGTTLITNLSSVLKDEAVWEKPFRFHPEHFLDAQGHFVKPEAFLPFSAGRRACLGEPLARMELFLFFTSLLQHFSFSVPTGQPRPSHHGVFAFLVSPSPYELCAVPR
Description: CYP inhibition in mixed human liver microsomes, CYP2D6 (bufurolol hydrochloride). The data set is classed as in vitro ADME. How it is done: as §1, §2, §3, §4

Data set [2] has as its target T4, full-length SHP2 (aa 1-593) (Homo sapiens, UniProt Q06124).
T4 sequence (Q06124 1-593): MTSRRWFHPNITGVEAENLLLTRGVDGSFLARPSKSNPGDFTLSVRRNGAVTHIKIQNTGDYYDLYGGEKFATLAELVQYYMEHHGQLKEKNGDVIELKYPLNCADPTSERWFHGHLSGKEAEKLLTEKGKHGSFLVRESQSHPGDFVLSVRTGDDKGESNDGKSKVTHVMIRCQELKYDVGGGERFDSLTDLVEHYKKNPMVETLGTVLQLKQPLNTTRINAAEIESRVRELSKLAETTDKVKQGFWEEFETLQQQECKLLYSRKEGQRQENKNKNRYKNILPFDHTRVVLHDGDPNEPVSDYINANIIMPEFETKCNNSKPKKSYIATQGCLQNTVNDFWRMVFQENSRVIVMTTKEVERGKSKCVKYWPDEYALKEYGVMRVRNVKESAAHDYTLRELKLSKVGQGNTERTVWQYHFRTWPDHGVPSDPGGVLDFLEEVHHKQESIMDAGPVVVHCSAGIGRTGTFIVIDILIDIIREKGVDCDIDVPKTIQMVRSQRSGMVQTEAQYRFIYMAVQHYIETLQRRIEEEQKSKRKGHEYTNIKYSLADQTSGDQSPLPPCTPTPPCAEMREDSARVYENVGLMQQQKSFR
Description: Activity on SHP2 phosphatase (DiFMUP fluorescence).
Description: 0.2 nM recombinantly expressed full-length SHP2 (aa 1-593), 0.5 nM activated polypeptide IRS1 with dual phosphorylation sites (sequence: H2N-LN(pY)IDLDLY(dPEG8)LST(pY)ASINFQK-amide), and a series of concentrations of the test compound (final concentrations of 1 μM, 0.3 μM, 0.1 μM, 0.03 μM, 0.01 μM, 0.003 μM, 0.001 M, 0.0003 μM, 0.0001 μM and 0.00003 μM) were added into the phosphatase reaction solution (60 mM HEPES, PH 7.5 0.005% Brij-35, 75 mM NaCl, 75 mM KCl, 1 mM EDTA, 5 mM DTT), followed by shaking (350 rpm) at room temperature for 30 minutes. Then the reaction substrate DiFMUP was added at a final concentration of 30 μM, and the reaction solution was reacted at room temperature for 30 minutes. Then the phosphatase reaction was stopped by adding 5 μL of the reaction stop solution (60 mM HEPES, pH 7.5, 0.2% SDS). Ex358 nm/Em455 fluorescence value was read on the fluorescence plate reader MD SpectraMax.
The IC50 value of compounds was calculated by using the four-parameter logit method. […] Different concentrations correspond to different inhibition rates of phosphatase activity. A reverse curve was plotted and the IC50 of the inhibitors was calculated from the curve. The IC50 of compounds was calculated by using Primer premier 6.0.

Consider `[2H]C([2H])([2H])Nc1nccc(Sc2c(C)nc(N3CCC4(CC3)Cc3ncccc3[C@H]4N)n3ccnc23)c1Cl` [Example 3, (S)-1′-(8-((3-Chloro-2-((methyl-d3)amino)pyridin-4-yl)thio)-7-methylimidazo[1,2-c]pyrimidin-5-yl)-5,7-dihydrospiro[cyclopenta[b]pyridine-6,4′-piperidin]-5-amine], for which, in data set [1] (read-out: Area under curve AUC), the AUC amounted to 72300 ng·h/mL. Moreover, in data set [1] (read-out: Maximum blood conc. Cmax), the Cmax is 12200 ng/mL. The IC50 was greater than 20 µM at CYP2C9, greater than 20 µM against CYP2C19, greater than 20 µM against CYP2D6 and 0.0045 µM in data set [2].
